Like-named read-outs stand apart in the source and are kept apart here. Where only a bound is given, the exact number is not on record here.

The target in one assay is T1, SOS1 (Homo sapiens, UniProt Q07889).
T1 sequence (Q07889 1-1333): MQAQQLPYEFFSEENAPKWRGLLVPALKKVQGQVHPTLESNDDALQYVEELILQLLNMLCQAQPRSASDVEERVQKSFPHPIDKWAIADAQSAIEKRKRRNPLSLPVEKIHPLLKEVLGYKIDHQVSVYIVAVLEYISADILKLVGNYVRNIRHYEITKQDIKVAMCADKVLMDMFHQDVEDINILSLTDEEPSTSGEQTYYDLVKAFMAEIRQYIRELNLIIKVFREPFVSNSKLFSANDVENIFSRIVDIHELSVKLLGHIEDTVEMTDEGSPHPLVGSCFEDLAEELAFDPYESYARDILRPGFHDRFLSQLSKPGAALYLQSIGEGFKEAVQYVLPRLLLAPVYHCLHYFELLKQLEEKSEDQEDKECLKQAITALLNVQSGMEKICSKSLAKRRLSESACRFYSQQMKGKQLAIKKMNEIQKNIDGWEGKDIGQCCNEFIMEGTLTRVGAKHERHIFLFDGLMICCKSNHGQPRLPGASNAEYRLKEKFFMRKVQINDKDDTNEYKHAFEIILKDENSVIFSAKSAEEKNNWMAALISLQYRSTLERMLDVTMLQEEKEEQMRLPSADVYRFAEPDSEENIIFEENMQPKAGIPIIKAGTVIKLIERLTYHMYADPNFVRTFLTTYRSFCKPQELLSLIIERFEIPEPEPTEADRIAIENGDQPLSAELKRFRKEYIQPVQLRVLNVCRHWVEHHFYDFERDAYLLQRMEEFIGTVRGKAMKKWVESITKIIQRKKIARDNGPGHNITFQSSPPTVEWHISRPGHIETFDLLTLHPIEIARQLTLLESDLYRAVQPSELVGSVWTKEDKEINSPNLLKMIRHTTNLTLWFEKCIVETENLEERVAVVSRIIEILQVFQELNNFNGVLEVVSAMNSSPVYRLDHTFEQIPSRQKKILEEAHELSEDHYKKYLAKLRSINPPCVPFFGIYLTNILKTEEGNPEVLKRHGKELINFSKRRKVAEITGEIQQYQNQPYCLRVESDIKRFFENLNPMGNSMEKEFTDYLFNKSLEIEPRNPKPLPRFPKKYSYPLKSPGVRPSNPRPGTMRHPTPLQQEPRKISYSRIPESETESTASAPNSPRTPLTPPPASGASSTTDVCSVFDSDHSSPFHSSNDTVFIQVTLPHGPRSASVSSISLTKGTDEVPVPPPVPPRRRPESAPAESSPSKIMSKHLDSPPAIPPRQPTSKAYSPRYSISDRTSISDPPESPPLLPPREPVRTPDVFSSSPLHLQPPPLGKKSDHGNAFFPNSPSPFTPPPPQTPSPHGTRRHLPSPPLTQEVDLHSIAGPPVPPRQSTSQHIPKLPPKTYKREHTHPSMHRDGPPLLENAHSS
Nature of the assay: biochemical.

The next assay addresses T2, CYP3A4 (Homo sapiens, UniProt P08684).
T2 construct: human liver microsomes were used as the CYP450 enzyme source; from tissue; host or cells: human liver microsomes
As to the kind of experiment: Inhibition of hepatic drug-metabolizing enzymes in human liver microsomes (substrates midazolam and testosterone). Format: in vitro ADME. From the text:
The main site of drug metabolism is the liver, and the main component of the mixed-function oxidase system present in the liver is the CYP450 enzyme. This enzyme system causes most clinically observed drug-drug interactions, which in turn leads to an increased incidence of adverse drug reactions. CYP450 is a group of supergene family composed of many isozymes, wherein CYP3A4 acts as a major metabolizing enzyme and is involved in the metabolism of nearly half of clinically used drugs. Similarly, CYP2C9 and CYP2C19 also act as important metabolizing enzymes and are involved in the metabolism of various drugs clinically. Therefore, evaluating the risk of drug-drug interactions by testing the inhibitory activity of compounds on CYP450 enzymes at an early stage can improve the safety of medication use.
In the present disclosure, human liver microsomes were used as the CYP450 enzyme source. The specific probe substrates for each CYP isoenzyme (wherein CYP3A4 used two substrates, midazolam and testosterone, denoted as CYP3A4-M and CYP3A4-T respectively) were incubated with a series of concentrations of the test compound in the presence of the cofactor NADPH. The production amount of metabolites of probe substrates in the incubation system was determined by LC-MS/MS, and the IC50 values of the test compound against each CYP450 enzyme subtype were calculated to evaluate its inhibitory effect on each CYP450 enzyme subtype. During the experiment, 49 µL of PBS, 50 µL of probe substrate, and 50 µL of human liver microsome working solution were sequentially added to the incubation system, followed by the addition of 1 µL of the test compound working solution at each concentration, and the mixture was mixed well. After pre-incubation at 37°C for 5 min, 50 µL of NADPH was added to initiate the reaction. After incubation for the corresponding time, an appropriate amount of ice-cold acetonitrile containing an internal standard was added to terminate the reaction. The mixture was vortexed to mix well, centrifuged, and the supernatant was taken. The supernatant was injected into LC-MS/MS to determine the production amount of metabolites of the probe substrate. Taking the enzyme activity at the 0-concentration point (characterized by the production amount of metabolites) as 100%, the percentage of residual enzyme activity of metabolites at different concentrations of the test compound was calculated. IC50 was calculated by the residual enzyme activity using Graphpad Prism software.

[1] abbreviates: substrate midazolam, read-out: Inhibitory activity on drug-metabolizing enzymes (IC50, µM) CYP3A4-M.
[2] abbreviates: substrate testosterone, read-out: Inhibitory activity on drug-metabolizing enzymes (IC50, µM) CYP3A4-T.

T2 sequence (P08684 whole entry): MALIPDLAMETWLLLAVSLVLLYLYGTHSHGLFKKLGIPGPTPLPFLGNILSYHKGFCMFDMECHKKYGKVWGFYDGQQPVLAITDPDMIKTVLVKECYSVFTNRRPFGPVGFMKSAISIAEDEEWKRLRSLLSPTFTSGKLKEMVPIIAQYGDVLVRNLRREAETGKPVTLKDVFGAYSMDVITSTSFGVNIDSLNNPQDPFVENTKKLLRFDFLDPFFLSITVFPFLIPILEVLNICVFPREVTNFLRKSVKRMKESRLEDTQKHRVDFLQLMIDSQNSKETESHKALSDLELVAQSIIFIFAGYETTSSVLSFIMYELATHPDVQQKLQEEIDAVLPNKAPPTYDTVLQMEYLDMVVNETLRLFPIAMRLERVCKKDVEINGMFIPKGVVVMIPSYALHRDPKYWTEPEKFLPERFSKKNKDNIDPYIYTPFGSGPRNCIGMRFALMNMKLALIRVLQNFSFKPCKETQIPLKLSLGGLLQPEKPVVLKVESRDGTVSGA

As for `C[C@@H](Nc1nnc(N2CCN(C3CCCC3)CC2)c2cc(=O)n(N3CCOCC3)cc12)c1cccc(C(F)F)c1F` [Example 120, (R)-4-((1-(3-(difluoromethyl)-2-fluorophenyl)ethyl)amino)-1-(4-cyclopentylpiperazin-1-yl)-6-morpholinopyrido[3 ,4-d]pyridazin-7(6H)-one], the IC50 (as a rule, the point on the concentration scale where inhibition reaches its midpoint) was 0.0041 µM at SOS1, > 10 µM at CYP3A4 (setting [1]) and > 10 µM at CYP3A4 (setting [2]).

Turning to `CNc1nnc(N[C@H](C)c2cccc(C(F)(F)F)c2C)c2cn(C3CC3)c(=O)cc12` [Example 52, (R)-6-cyclopropyl-4-((1-(2-methyl-3-(trifluoromethyl)phenyl)ethyl)amino)-1-(methylamino)pyrid o[3,4-d]pyridazin-7(6H)-one], the IC50 was 0.0057 µM at SOS1, > 10 µM on CYP3A4 (setting [1]) and > 10 µM at CYP3A4 (setting [2]).

With `CCN1CCN(c2nnc(N[C@H](C)c3cccc(C(F)F)c3F)c3cn(C4CCC4)c(=O)cc23)CC1` [Example 112, (R)-6-cyclobutyl-4-((1-(3-(difluoromethyl)-2-fluorophenyl)ethyl)amino)-1-(4-ethylpiperazin-1-yl)pyrido[3,4-d]pyridazin-7(6H)-one], the figures for the IC50 on SOS1, at CYP3A4 (setting [1]) and on CYP3A4 (setting [2]) were 0.005 µM, > 10 µM and > 10 µM, respectively.

As for `CC(C)N1CCN(c2nnc(N[C@H](C)c3cccc(C(F)F)c3F)c3cn(C4(C)CC4)c(=O)cc23)CC1` [Example 217, (R)-4-((1-(3-(difluoromethyl)-2-fluorophenyl)ethyl)amino)-1-(4-isopropylpiperazin-1-yl)-6-(1-methylcyclopropyl) pyrido[3,4-d]pyridazin-7(6H)-one], the results for the IC50 against SOS1, on CYP3A4 (setting [1]) and on CYP3A4 (setting [2]) were 0.0046 µM, > 10 µM and > 10 µM, respectively.

As to `CCN1CCN(c2nnc(N[C@H](C)c3cccc(C(F)F)c3F)c3cn(N4CCOCC4)c(=O)cc23)CC1` [Example 109, (R)-4-((1-(3-(difluoromethyl)-2-fluorophenyl)ethyl)amino)-1-(4-ethylpiperazin-1-yl)-6-morpholinopyrido[3 ,4-d]pyridazin-7(6H)-one], the 50% inhibitory concentration (IC50) against SOS1 is 0.0042 µM; on CYP3A4 (setting [1]), > 10 µM; at CYP3A4 (setting [2]), > 10 µM.

Regarding `CC(C)N1CCN(c2nnc(N[C@H](C)c3cccc(C(F)F)c3F)c3cn(N4CCOCC4)c(=O)cc23)CC1` [Example 111, (R)-4-((1-(3-(difluoromethyl)-2-fluorophenyl)ethyl)amino)-1-(4-isopropylpiperazin-1-yl)-6-morpholinopyrido[3 ,4-d]pyridazin-7(6H)-one], the IC50 against SOS1 was 0.0044 µM; at CYP3A4 (setting [1]) it was > 10 µM; on CYP3A4 (setting [2]), > 10 µM.

In the case of `CC(C)Nc1nnc(N[C@H](C)c2cccc(C(F)F)c2F)c2cn(C3(C)CC3)c(=O)cc12.O=CO` [Example 12, (R)-4-((1-(3-(difluoromethyl)-2-fluorophenyl)ethyl)amino)-1-(isopropylamino)-6-(1-methylcyclopropyl) pyrido[3,4-d]pyridazin-7(6H)-one formate], the figures for the IC50 against SOS1, at CYP3A4 (setting [1]) and on CYP3A4 (setting [2]) were 0.0049 µM, > 10 µM and > 10 µM, respectively.

Turning to `C[C@@H](Nc1nnc(N2CCN(C)CC2)c2cc(=O)n(C3CC3)cc12)c1cccc(C(F)F)c1F` [Example 77], the IC50 was 0.0059 µM against SOS1; 7.81 µM against CYP3A4 (Inhibitory activity on drug-metabolizing enzymes (IC50, µM) CYP3A4-M, substrate midazolam); > 10 µM at CYP3A4 (Inhibitory activity on drug-metabolizing enzymes (IC50, µM) CYP3A4-T, substrate testosterone).

With `CNc1nnc(N[C@H](C)c2cccc(C(F)F)c2F)c2cn(C3(C)CC3)c(=O)cc12.O=CO` [Example 9, (R)-4-((1-(3-(difluoromethyl)-2-fluorophenyl)ethyl)amino)-1-(methylamino)-6-(1-methylcyclopropyl) pyrido[3,4-d]pyridazin-7(6H)-one formate], the IC50 at SOS1 was 0.0045 µM; on CYP3A4 (setting [1]), > 10 µM; on CYP3A4 (setting [2]), > 10 µM.

In the case of `CCN1CCN(c2nnc(N[C@H](C)c3cccc(C(F)F)c3F)c3cn(C4(C)CC4)c(=O)cc23)CC1` [Example 216, (R)-4-((1-(3-(difluoromethyl)-2-fluorophenyl)ethyl)amino)-1-(4-ethylpiperazin-1-yl)-6-(1-methylcyclopropyl) pyrido[3,4-d]pyridazin-7(6H)-one], the results for the IC50 at SOS1, on CYP3A4 (setting [1]) and on CYP3A4 (setting [2]) were 0.0046 µM, > 10 µM and > 10 µM, respectively.

As to `C[C@@H](Nc1nnc(N2CCN(C(C)(C)C)CC2)c2cc(=O)n(C3(C)CC3)cc12)c1cccc(C(F)F)c1F.O=CO` [Example 222, (R)-1-(4-(tert-butyl)piperazin-1-yl)-4-((1-(3-(difluoromethyl)-2-fluorophenyl)ethyl)amino)-6-(1-methylcyclopropyl) pyrido[3,4-d]pyridazin-7(6H)-one formate], the 50% inhibitory concentration (IC50) at SOS1 was 0.005 µM; on CYP3A4 (setting [1]), > 10 µM; at CYP3A4 (setting [2]) it was > 10 µM.

In the case of `CCN1CCN(c2nnc(N[C@H](C)c3cccc(C(F)F)c3F)c3cn(C4CC(F)(F)C4)c(=O)cc23)CC1` [Example 98, (R)-6-(3,3-difluorocyclobutyl)-4-((1-(3-(difluoromethyl)-2-fluorophenyl)ethyl)amino)-1-(4-ethylpiperazin-1-yl)pyrido[3,4-d]pyridazin-7(6H)-one], the IC50 against SOS1 was 0.0043 µM; at CYP3A4 (setting [1]), > 10 µM; on CYP3A4 (setting [2]) it was > 10 µM.

Take `C[C@@H](Nc1nnc(N2CCN(C)CC2)c2cc(=O)n(C3(C)CC3)cc12)c1cccc(C(F)F)c1F.O=CO` [Example 80, (R)-4-((1-(3-(difluoromethyl)-2-fluorophenyl)ethyl)amino)-6-(1-methylcyclopropyl)-1-(4-methylpiperazin-1-yl)pyrido[3,4-d]pyridazin-7(6H)-one formate]: the concentration for half-maximal inhibition (IC50) against SOS1 was 0.0045 µM; on CYP3A4 (setting [1]), > 10 µM; on CYP3A4 (setting [2]) it was > 10 µM.

For `C[C@@H](Nc1nnc(N2CCN(C)CC2)c2cc(=O)n(C3CCC3)cc12)c1cccc(C(F)F)c1F` [Example 88, (R)-6-cyclobutyl-4-((1-(3-(difluoromethyl)-2-fluorophenyl)ethyl)amino)-1-(4-methylpiperazin-1-yl)pyrido[3,4-d]pyridazin-7(6H)-one], the values for the half-inhibitory concentration (IC50) on SOS1, on CYP3A4 (setting [1]) and at CYP3A4 (setting [2]) were 0.0045 µM, > 10 µM and > 10 µM, respectively.

Source of the values: patent EP4722213A1, “NITROGEN-CONTAINING FUNCTIONAL GROUP-SUBSTITUTED PYRIDAZINOPYRIDONE DERIVATIVE AND USE THEREOF” (Sichuan Huiyu Pharmaceutical Co., Ltd., priority 2023, dated 2024).
